# Data: patent publication US20090048295A1, “SUBSTITUTED 5,6,7,8-TETRAHYDROQUINOLINE DERIVATIVES, COMPOSITIONS, AND METHODS OF USE THEREOF” (priority 2007, published 2009)
# pIC50, pKi: −log10 of the molar value. Values joined by “and” are separate entries in the source; they are usually repeats but may differ in a detail not shown here. Equal values may be shown once. Read-outs that look alike come from different tables or passages of the source.
# Legend:
# C5a receptor [1] = target: T1, C5a receptor (Homo sapiens, UniProt P21730); experiment: biochemical
# T1 sequence (P21730 1-350): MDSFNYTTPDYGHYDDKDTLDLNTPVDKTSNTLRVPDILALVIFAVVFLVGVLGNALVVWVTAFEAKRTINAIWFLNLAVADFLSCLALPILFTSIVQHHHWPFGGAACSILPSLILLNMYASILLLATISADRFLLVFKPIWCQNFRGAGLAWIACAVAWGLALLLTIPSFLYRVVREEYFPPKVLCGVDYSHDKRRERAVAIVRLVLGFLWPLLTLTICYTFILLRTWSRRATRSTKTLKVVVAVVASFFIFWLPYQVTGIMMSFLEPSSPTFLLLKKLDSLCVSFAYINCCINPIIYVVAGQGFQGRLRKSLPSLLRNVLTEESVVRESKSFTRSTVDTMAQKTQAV
# Experimental: (§1) Competition binding assays for C5a receptors were performed by incubation of differentiated U937 cells (200,000 cells/well), test compound (1% DMSO) and [^125I]-C5a (Bolton & Hunter labeled, Perkin Elmer, specific activity=2200 Ci/mmol, 0.05 nM final) in binding buffer consisting of 50 mM HEPES, 5 mM MgCl2, 1 mM CaCl2, 0.5% protease-free BSA, 0.02% NaN3, pH 7.4. 100× solutions of test compounds were prepared in DMSO and further diluted in binding buffer. Non-specific binding was defined in wells containing 100 nM recombinant C5a. Cells and compound were pre-incubated for 30 min at RT. After addition of the radioligand, further incubation for 60 min occurred at 4° C. Cells were harvested on GF/B filters—presoaked in 0.5% polyethylenimine, followed by washing with binding buffer containing 500 mM NaCl, pH 7.4. Filter bound radioactivity was determined by liquid scintillation counting. IC50 and Ki values were calculated using non-linear regression in Graphpad Prism. Ki is calculated using the equation of Cheng and Prusoff (Biochem. Pharmacol. 1973, 22: 3099-3108)
# C5a receptor [2] = target: T1, C5a receptor; experiment: Calcium Mobilization Assay (C5a-induced Ca2+ mobilization, FLIPR, differentiated U937 cells); format: cell-based; set-up: endogenous in cells; host or cells: U937 cells differentiated with dibutyryl cAMP; conditions: […] recombinant human C5a, 20 min pre-incubation, multiple values = duplicate experiments, read-out: C5a Induced Ca Mobil. Average IC50
# Method in brief: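 Differentiated U937 cells (1 mM dibutyryl cAMP, 2–3 days) loaded with Fluo-3AM, pre-incubated with compound 20 min at room temperature (1% DMSO), then stimulated with 1.5 nM recombinant human C5a. Intracellular Ca2+ fluorescence recorded on FLIPR each second to 2 min post-addition; maximal fluorescence used.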
# C5a receptor [3] = target: T1, C5a receptor; experiment: [125I]-C5a Radioligand Binding Assay (competition binding, differentiated U937 cells); conditions: [125I]-C5a 0.05 nM, U937 cells, multiple values = duplicate experiments; for inhibition at 10 µM: read-out: [125I]-C5a Binding % Inhibition 10 μM, test compound 10 μM; for [125I]-C5a Binding % Inhibition 1 μM: test compound 1 μM; for [125I]-C5a Binding % Inhibition 10 μM: test compound 10 μM; for inhibition at 1 µM: read-out: [125I]-C5a Binding % Inhibition 1 μM, test compound 1 μM;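 as to all read-outs here: cells preincubated with compound 30 min at room temperature, then 60 min at 4 °C with radioligand, bound counts read by scintillation, nonspecific binding defined with 100 nM C5a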
# Experimental: as §1
# C5a receptor [4] = target: T1, C5a receptor
# Experimental: as §1
SMILES,pKi (C5a receptor [1]),pIC50 (C5a receptor [2]),inhibition at 10 µM (C5a receptor [3]),[125I]-C5a Binding % Inhibition 1 μM (C5a receptor [3]),[125I]-C5a Binding % Inhibition 10 μM (C5a receptor [3]),inhibition at 1 µM (C5a receptor [3]),pKi (C5a receptor [4])
CCc1cccc(CC)c1-c1cc(OC)c2c(n1)CCCC2N1Cc2ccccc2C1 (stereo not drawn) [Compound 89],5.77,< 5.00,75%,71% and 37%,77%,,
"CCc1cccc(CC)c1-c1cc(OC)c2c([n+]1[O-])CCCC2N(CC)c1cccc2ccccc12 (racemic) [Compound 19, (±)-[2-(2,6-Diethyl-phenyl)-4-methoxy-1-oxy-5,6,7,8-tetrahydro-quinolin-5-yl]-ethyl-naphthlen-1-yl-amine]",6.97,6.79,86%,82%,98%,81%,
CCN(c1cccc2ccccc12)C1CCCc2nc(-c3c(OC)cccc3OC)cc(OC)c21 (stereo not drawn) [Compound 58],5.94,5.75,83%,46%,88%,59%,
CCc1cccc(CC)c1-c1cc(OC)c2c(n1)CCCC2N(CC)Cc1ccccc1 (stereo not drawn) [Compound 85],6.02,< 5.00,75%,49%,79%,56%,
"CCc1ccccc1-c1cc(OC)c2c(n1)CCCC2N(CC)c1cccc2ccccc12 (racemic) [Compound 39, (±)-Ethyl-[2-(2-ethyl-phenyl)-4-methoxy-5,6,7,8-tetrahydro-quinolin-5-yl]-naphthlen-1-yl-amine]",7.07,6.19,87%,90%,98%,81%,
"CCc1cccc(CC)c1-c1ccc2c(n1)CCCC2N(CC)c1cccc2ccccc12 (racemic) [Compound 109, (±)-[2-(2,6-Diethyl-phenyl)-5,6,7,8-tetrahydro-quinolin-5-yl]-ethyl-naphthlen-1-yl-amine]",5.97,< 5.00,83%,65% and 43%,78%,,
CCc1cccc(CC)c1-c1cc(OC)c2c(n1)CCCC2N(C)C1Cc2ccccc2C1 (stereo not drawn) [Compound 95],5.69,< 5.00,68%,45% and 24%,80%,,
CCc1cccc(CC)c1-c1cc(OC)c2c(n1)CCCC2N(C)Cc1cccc2ccccc12 (stereo not drawn) [Compound 90],6.39,< 5.00,86%,71%,84%,87%,
"CCc1cccc(CC)c1-c1cc(OC)c2c(n1)CCCC2N(C)c1cccc2ccccc12 (racemic) [Compound 20, (±)-[2-(2,6-Diethyl-phenyl)-4-methoxy-5,6,7,8-tetrahydro-quinolin-5-yl]-methyl-naphthlen-1-yl-amine]",8.14,6.78,93%,99%,102% and 100%,84%,
CCc1cccc(CC)c1-c1cc(OC)c2c(n1)CCCC2N1CCc2cccc(C(F)(F)F)c2C1 (stereo not drawn) [Compound 26],,6.58,94%,96%,99%,93%,8.01
